Measurements reported in patent publication US6335350B1, “Acetamide and substituted acetamide-containing thiourea inhibitors of herpes viruses” (American Home Products Corporation, priority 1998, dated 2002).
Values after ≈ are worked out from the molar mass of the structure shown.

Tests used:
HSV-1 = test: HSV Antiviral (ELISA) Assay; type: cell-based, herpes simplex virus type 1; conditions: Vero cells, HSV-1; for IC50: Human alphaherpesvirus 1, Vero, read-out: IC50 Ug/ml HSV
Protocol: Vero cells (ATCC #CCL-81) are plated on 96-well tissue culture plates at 3.5×10^4 cells per 100 μl tissue culture DMEM (Dulbecco's modified Eagle media) supplemented with 2% fetal bovine serum (FBS) in each well. After overnight incubation @ 37° C. (in 5% CO2) and 30 minutes prior to infection with HSV-1 (multiplicity of infection equal to 0.006), cells are either untreated, or treated with test compound (multiple concentrations) or reference standard drug control. After approximately 24 hours post-infection incubation @ 37° C. (in 5% CO2), cells are fixed for ELISA assay. The primary antibody is murine anti-HSV glycoprotein D monoclonal primary antibody and the secondary antibody is goat anti-mouse IgG linked to β-galactosidase. Thus the extent of viral replication is determined by assessing β-galactosidase activity by quantifying the generation of the 4-methyl umbelliferone fluorescent cleavage product after addition of the methyl umbelliferyl-β-D-galactoside (Sigma #M1633) substrate on a microfluorimeter (365 nm for excitation and 450 nm for emission). Antiviral activity (IC50) of the test compound is determined by comparing the flourescence obtained in absence of compound to that obtained in the presence of compound.

HCMV wild-type = test: HCMV yield assay; type: cell-based, human cytomegalovirus; conditions: human foreskin fibroblasts; for IC50: Human betaherpesvirus 5, Fibroblast, read-out: IC50 Ug/ml HCMV
Protocol: Yield assay. Monolayer cultures of human foreskin fibroblasts are infected with HCMV wild-type, typically at a multiplicity of infection equal to 0.2, in the presence of inhibitor compound (varying concentrations). At three days post-infection, total virus produced in these cultures (i.e. virus yield) is assessed by harvesting and titering the virus in 12-well plates of cultured human foreskin fibroblasts (done in the absence of inhibitor). Plaques are quantified at 2 weeks post-infection. An inhibitor of HCMV is identified by the reduction in titer of virus yield in the presence, compared to the titer in the absence of compound. In this assay, the relative anti-HCMV activity of an inhibitor is typically determined by calculating the IC50 or IC90 value, that is, the amount of compound required to reduce the virus yield by 50% or 90%, respectively. Table I describes IC50 data for compounds tested against HCMV.

VZV strain Ellen = test: VZV Antiviral (ELISA) Assay; type: cell-based, varicella-zoster virus; conditions: human foreskin fibroblast cells; for IC50 / inhibition at 10 µg/mL: Human alphaherpesvirus 3, Fibroblast; for IC50: read-out: IC50 Ug/ml VZV; for inhibition at 10 µg/mL: read-out: % inhibition 10 ug/ml VZV, 10 ug/ml
Protocol: For the generation of stock VZV to be used in the assay, VZV strain Ellen (ATCC #VR-1367) is used to infect human foreskin fibroblast (HFF) cells at low multiplicity (less than 0.1) and incubated overnight at 37° C. in 5% CO2. After the overnight incubation, the mixture of uninfected and VZV-infected HFF infected cells are then harvested and added to each well of 96-well plates (3.5×10^4 cells in 100 μl DMEM supplemented with 2% FBS) which contain test compound or the reference standard drug control (in 100 μl DMEM supplemented with 2% FBS per well). These cells are incubated for three days at 37° C. in 5% CO2, then fixed for ELISA assay. The primary antibody is murine anti-VZV glycoprotein II monoclonal antibody (Applied Biosystems, Inc. #13-145-100) and the secondary antibody is goat anti-mouse IgG linked to β-galactosidase. Thus the extent of viral replication is determined by assessing β-galactosidase activity by quantifying the generation of the 4-methyl umbelliferone fluorescent cleavage product after addition of the methyl umbelliferyl-β-D-galactoside (Sigma #M1633) substrate on a microfluorimeter (365 nm for excitation and 450 nm for emission). Antiviral activity (IC50) of the test compound is determined by comparing the flourescence obtained in absence of compound to that obtained in the presence of compound.

| SMILES | IC50 (HSV-1) | IC50 Ug/ml HSV (HSV-1) | IC50 (HCMV wild-type) | IC50 (VZV strain Ellen) | inhibition at 10 µg/mL (VZV strain Ellen) | IC50 Ug/ml HCMV (HCMV wild-type) | % inhibition 10 ug/ml VZV (VZV strain Ellen; 10 ug/ml) | IC50 Ug/ml VZV (VZV strain Ellen) |
| --- | --- | --- | --- | --- | --- | --- | --- | --- |
| CCOc1c(Cl)cc(NC(=S)Nc2ccc(NC(C)=O)cc2)cc1Cl [Example 176, N-{4-[3-(3,5-Dichloro-4-ethoxy-phenyl)-thioureido]-phenyl}-acetamide] | > 50 µg/mL | – | 0.5 µg/mL (≈ 1.26 µM) | > 10 µg/mL | 24% | – | – | – |
| CCCCOc1c(Cl)cc(NC(=S)Nc2ccc(NC(C)=O)cc2)cc1Cl [Example 177, N-{4-[3-(4-Butoxy-3,5-dichloro-phenyl)-thioureido]-phenyl}-acetamide] | > 50 µg/mL | – | 3.5 µg/mL (≈ 8.21 µM) | > 10 µg/mL | 19% | – | – | – |
| CC(=O)Nc1ccc(NC(=S)Nc2cc(Cl)c(OCc3ccccc3)c(Cl)c2)cc1 [Example 178, N-{4-[3-(4-Benzyloxy-3,5-dichloro-phenyl)-thioureido]-phenyl}-acetamide] | > 50 µg/mL | – | > 10 µg/mL | > 10 µg/mL | 32% | – | – | – |
| COc1ccc(NC(=S)Nc2ccc(NC(C)=O)cc2)c(OC)c1Cl [Example 179, N-{4-[3-(3-Chloro-2,4-dimethoxy-phenyl)-thioureido]-phenyl}-acetamide] | 5 µg/mL (≈ 13.2 µM) | – | > 50 µg/mL | > 10 µg/mL | 35% | – | – | – |
| COc1cc(OC)c(NC(=S)Nc2ccc(NC(C)=O)cc2)cc1I [Example 197, N-{4-[3-(5-Iodo-2,4-dimethoxy-phenyl)-thioureido]-phenyl}-acetamide] | 6 µg/mL (≈ 12.7 µM) | – | > 10 µg/mL | > 15 µg/mL | 59% | – | – | – |
| COc1cc(OC)c(NC(=S)Nc2ccc(NC(C)=O)cc2)cc1F [Example 198, N-{4-[3-(5-Fluoro-2,4-dimethoxy-phenyl)-thioureido]-phenyl}-acetamide] | 9 µg/mL (≈ 24.8 µM) | – | > 50 µg/mL | > 10 µg/mL | 36% | – | – | – |
| CCN(CC)c1ccc(NC(=S)Nc2ccc(NC(C)=O)cc2)cc1Cl [Example 202, N-{4-[3-(3-Chloro-4-diethylamino-phenyl)-thioureido]-phenyl}-acetamide] | 3 µg/mL (≈ 7.67 µM) | – | > 10 µg/mL | > 10 µg/mL | 18% | – | – | – |
| CC(=O)Nc1ccc(NC(=S)Nc2ccc(N(C)C3CCCCC3)c(Cl)c2)cc1 [Example 203] | – | >10 Ug/ml | – | – | – | 2 Ug/ml | 22% | >10 Ug/ml |
| CC(=O)Nc1ccc(NC(=S)Nc2ccc(N3CCOCC3)c(Cl)c2)cc1 [Example 205, N-{4-[3-(3-Chloro-4-morpholin-4-yl-phenyl)-thioureido]-phenyl}-acetamide] | > 50 µg/mL | – | 20 µg/mL (≈ 49.4 µM) | > 10 µg/mL | 30% | – | – | – |
| COc1cc(OCCCC#N)c(Cl)cc1NC(=S)Nc1ccc(NC(C)=O)cc1 [Example 211, N-(4-{3-[5-Chloro-2-methoxy-4-(4-nitrilo-butoxy)-phenyl]-thioureido}-phenyl)-acetamide] | 30 µg/mL (≈ 69.3 µM) | – | > 10 µg/mL | > 10 µg/mL | 35% | – | – | – |
| COc1cc(OCC#N)c(Cl)cc1NC(=S)Nc1ccc(NC(C)=O)cc1 [Example 212, N-(4-{3-[5-Chloro-2-methoxy-4-(2-nitrilo-ethoxy)-phenyl]-thioureido}-phenyl)-acetamide] | > 50 µg/mL | – | 20 µg/mL (≈ 49.4 µM) | > 10 µg/mL | 23% | – | – | – |
| COc1cc(OCC(=O)OC(C)(C)C)c(Cl)cc1NC(=S)Nc1ccc(NC(C)=O)cc1 [Example 216, {4-[3-(4-Acetylamino-phenyl)-thioureido]-2-chloro-5-methoxy-phenoxy}-acetic acid tert-butyl ester] | 35 µg/mL (≈ 72.9 µM) | – | > 10 µg/mL | > 10 µg/mL | 23% | – | – | – |
| COC(=O)COc1cc(OC)c(NC(=S)Nc2ccc(NC(C)=O)cc2)cc1Cl [Example 217, {4-[3-(4-Acetylamino-phenyl)-thioureido]-2-chloro-5-methoxy-phenoxy}-acetic acid methyl ester] | > 50 µg/mL | – | > 10 µg/mL | > 10 µg/mL | 10% | – | – | – |
| COc1cc(OCC(=O)OC(C)(C)C)c(NC(=S)Nc2ccc(NC(C)=O)cc2)cc1Cl [Example 218, {2-[3-(4-Acetylamino-phenyl)-thioureido]-4-chloro-5-methoxy-phenoxy}-acetic acid tert-butyl ester] | 15 µg/mL (≈ 31.3 µM) | – | > 10 µg/mL | > 10 µg/mL | 18% | – | – | – |

Now from value to compound, other results behind:

| IC50 (HSV-1) | IC50 Ug/ml HSV (HSV-1) | SMILES | IC50 (HCMV wild-type) | IC50 (VZV strain Ellen) | inhibition at 10 µg/mL (VZV strain Ellen) | IC50 Ug/ml HCMV (HCMV wild-type) | % inhibition 10 ug/ml VZV (VZV strain Ellen; 10 ug/ml) | IC50 Ug/ml VZV (VZV strain Ellen) |
| --- | --- | --- | --- | --- | --- | --- | --- | --- |
| 1.2 µg/mL (≈ 3.3 µM) | – | COc1cc(C)c(Cl)cc1NC(=S)Nc1ccc(NC(C)=O)cc1 [Example 199, N-{4-[3-(5-Chloro-2-methoxy-4-methyl-phenyl)-thioureido]-phenyl}-acetamide] | > 10 µg/mL | > 15 µg/mL | 60% | – | – | – |
| 30 µg/mL (≈ 74.1 µM) | – | COc1cc(OCC#N)c(NC(=S)Nc2ccc(NC(C)=O)cc2)cc1Cl [Example 213, N-(4-{3-[5-Chloro-4-methoxy-2-(2-nitrilo-ethoxy)-phenyl]-thioureido}-phenyl)-acetamide] | 15 µg/mL (≈ 37 µM) | > 10 µg/mL | 20% | – | – | – |
| 20 µg/mL (≈ 48.8 µM) | – | COc1cc(OCCO)c(NC(=S)Nc2ccc(NC(C)=O)cc2)cc1Cl [Example 214, N-(4-{3-[5-Chloro-2-(2-hydroxy-ethoxy)-4-methoxy-phenyl]-thioureido}-phenyl)-acetamide] | > 10 µg/mL | > 10 µg/mL | 20% | – | – | – |
| > 50 µg/mL | – | COc1cc(OCCO)c(Cl)cc1NC(=S)Nc1ccc(NC(C)=O)cc1 [Example 215, N-(4-{3-[5-Chloro-4-(2-hydroxy-ethoxy)-2-methoxy-phenyl]-thioureido}-phenyl)-acetamide] | > 10 µg/mL | > 10 µg/mL | 30% | – | – | – |
| 14 µg/mL (≈ 38.3 µM) | – | COc1cc(O)c(Cl)cc1NC(=S)Nc1ccc(NC(C)=O)cc1 [Example 223, N-{4-[3-(5-Chloro-4-hydroxy-2-methoxy-phenyl)-thioureido]-phenyl}-acetamide] | > 50 µg/mL | > 10 µg/mL | 24% | – | – | – |
| > 50 µg/mL | – | COc1cc(N2CCOCC2)c(NC(=S)Nc2ccc(NC(C)=O)cc2)cc1Cl [Example 226, N-{4-[3-(5-Chloro-4-methoxy-2-morpholin-4-yl-phenyl)-thioureido]-phenyl}-Acetamide] | > 50 µg/mL | > 10 µg/mL | 35% | – | – | – |
| > 50 µg/mL | – | COc1cc(N(C)C)c(NC(=S)Nc2ccc(NC(C)=O)cc2)cc1Cl [Example 227, N-{4-[3-(5-Chloro-2-dimethylamino-4-methoxy-phenyl)-thioureido]-phenyl}-acetamide] | > 50 µg/mL | > 10 µg/mL | 32% | – | – | – |
| 3 µg/mL (≈ 7.16 µM) | – | COc1cc(N2CCCC2)c(NC(=S)Nc2ccc(NC(C)=O)cc2)cc1Cl [Example 228, N-{4-[3-(5-Chloro-4-methoxy-2-pyrrolidin-1-yl-phenyl)-thioureido]-phenyl}-acetamide] | > 10 µg/mL | > 10 µg/mL | 35% | – | – | – |
| 15 µg/mL (≈ 34.6 µM) | – | COc1cc(N2CCCCC2)c(NC(=S)Nc2ccc(NC(C)=O)cc2)cc1Cl [Example 229, N-{4-[3-(5-Chloro-4-methoxy-2-piperidin-1-yl-phenyl)-thioureido]-phenyl}-acetamide] | 7 µg/mL (≈ 16.2 µM) | > 10 µg/mL | 35% | – | – | – |
